Literature values in patent US6380175B1, “Method for enhancement of delivery of THC by the administration of its prodrugs via the nasal route” (New Millennium Pharmaceutical Research, Inc., priority 1999, dated 2002).

Conditions: room temperature

SMILES: CCCCCc1cc(O)c2c(c1)OC(C)(C)C1CCC(C)=CC21 (stereo not shown) [THC, Δ-9-tetrahydrocannabinol]
- aqueous solubility: very poor aqueous solubility
